Here are results for one molecule from ChEMBL document CHEMBL3044795, “Synthesis and biological evaluation of novel benzoquinones as potential antimicrobial agents” (2013).

Type in all cases: functional
Experiment [1] concerns Pseudomonas aeruginosa. The experiment is described as follows: Antibacterial activity against Pseudomonas aeruginosa ATCC 10145 assessed as growth inhibition after 24 hr. The settings on record: ATCC 10145, 24 h.
The test system of experiment [2] is Staphylococcus aureus. The experiment is described as follows: Antibacterial activity against Staphylococcus aureus DSM 1104 assessed as growth inhibition after 24 hr by two fold serial dilution method. The settings on record: DSM 1104, 24 h.
Experiment [3] concerns Pseudomonas aeruginosa. The experiment is described as follows: Ratio of Ampicillin MIC to compound MIC for Pseudomonas aeruginosa ATCC 10145.
Experiment [4] relates to Escherichia coli. The experiment is described as follows: Antibacterial activity against Escherichia coli ATCC 11775 assessed as growth inhibition after 24 hr. The conditions noted are these: ATCC 11775, 24 h.
The subject of experiment [5] is Bacillus subtilis. The experiment is described as follows: Antibacterial activity against Bacillus subtilis ATCC 6633 assessed as diamater of growth inhibition zone after 24 hr by agar cup diffusion method.
Experiment [6] concerns Staphylococcus aureus. The experiment is described as follows: Antibacterial activity against Staphylococcus aureus DSM 1104 assessed as growth inhibition after 24 hr. The settings on record: DSM 1104, 24 h.
For experiment [7], the system named is Candida albicans. The experiment is described as follows: Antifungal activity against Candida albicans DSM 70014 assessed as growth inhibition after 48 hr by two-fold serial dilution method. The settings on record: DSM 70014, 48 h.
Experiment [8] deals with Bacillus subtilis. The experiment is described as follows: Antibacterial activity against Bacillus subtilis ATCC 6633 assessed as growth inhibition after 24 hr by two fold serial dilution method. The conditions noted are these: ATCC 6633, 24 h.
Experiment [9] has as its system Bacillus subtilis. The experiment is described as follows: Antibacterial activity against Bacillus subtilis ATCC 6633 assessed as growth inhibition after 24 hr. The settings on record: ATCC 6633, 24 h.
Experiment [10] has as its system Pseudomonas aeruginosa. The experiment is described as follows: Antibacterial activity against Pseudomonas aeruginosa ATCC 10145 assessed as diamater of growth inhibition zone after 24 hr by agar cup diffusion method.
The subject of experiment [11] is Escherichia coli. The experiment is described as follows: Ratio of compound MIC to Ampicillin MIC for Escherichia coli ATCC 11775.
The test system of experiment [12] is Candida albicans. The experiment is described as follows: Antifungal activity against Candida albicans DSM 70014 assessed as diamater of growth inhibition zone after 48 hr by agar cup diffusion method.
Experiment [13] has as its system Candida albicans. The experiment is described as follows: Antifungal activity against Candida albicans DSM 70014 assessed as growth inhibition after 48 hr. The settings on record: DSM 70014, 48 h.
Experiment [14] has as its system Escherichia coli. The experiment is described as follows: Antibacterial activity against Escherichia coli ATCC 11775 assessed as diamater of growth inhibition zone after 24 hr by agar cup diffusion method.
Experiment [15] relates to Pseudomonas aeruginosa. The experiment is described as follows: Antibacterial activity against Pseudomonas aeruginosa ATCC 10145 assessed as growth inhibition after 24 hr by two-fold serial dilution method. The conditions noted are these: ATCC 10145, 24 h.
Experiment [16] deals with Staphylococcus aureus. The experiment is described as follows: Antibacterial activity against Staphylococcus aureus DSM 1104 assessed as diamater of growth inhibition zone after 24 hr by agar cup diffusion method.
The test system of experiment [17] is Escherichia coli. The experiment is described as follows: Antibacterial activity against Escherichia coli ATCC 11775 assessed as growth inhibition after 24 hr by two-fold serial dilution method. The settings on record: ATCC 11775, 24 h.

The structures appear in SMILES notation. ≈ marks a conversion by molar mass, not a printed value.

For `COc1ccc(/C=N/N=c2\scc(C3=CC(=O)C=CC3=O)n2-c2ccc(C)cc2)cc1`, the minimal bactericidal concentration (MBC) – broadly, the lowest tested concentration that kills the bacteria rather than only halting them – in the experiment on Pseudomonas aeruginosa [1] came out at 25 µg/mL (≈ 58.2 µM); in the experiment on Escherichia coli [4], 50 µg/mL (≈ 116 µM); in the experiment with Staphylococcus aureus [6] it was 50 µg/mL (≈ 116 µM); in the experiment on Bacillus subtilis [9] it was 50 µg/mL (≈ 116 µM). Moreover, the MIC (in general, the lowest concentration that inhibits growth of the organism) in the experiment with Staphylococcus aureus [2] worked out at 50 µg/mL (≈ 116 µM); in the experiment on Candida albicans [7], 50 µg/mL (≈ 116 µM); in the experiment with Bacillus subtilis [8], 50 µg/mL (≈ 116 µM); in the experiment with Pseudomonas aeruginosa [15], 12.5 µg/mL (≈ 29.1 µM); in the experiment with Escherichia coli [17], 25 µg/mL (≈ 58.2 µM). The Ratio in the experiment on Pseudomonas aeruginosa [3] was 4; in the experiment on Escherichia coli [11], 2. In addition, the “diameter of the inhibition zone (DIZ)” value with Bacillus subtilis [5] is 14 mm; with Pseudomonas aeruginosa [10], 15 mm; with Candida albicans [12], 14 mm; in the experiment with Escherichia coli [14], 16 mm; in the experiment on Staphylococcus aureus [16], 16 mm. Also, the MFC (as a rule, the smallest concentration meeting the test's criterion for killing the fungus) in the experiment with Candida albicans [13] was found to be 50 µg/mL (≈ 116 µM).
